Data published in the NIST ThermoML archive (doi:10.1016/j.fluid.2012.01.014).

Legend:
[1] = Ring tensiometer
[2] = cn = amount concentration of the nth substance listed, in mol/dm3; conditions: Ring tensiometer

O [water]
[1]
Conditions | surface tension liquid-gas [mN/m]
293 K | 72.8
303 K | 71.2
313 K | 69.6

CCCCCCCCCCCCCCCC[N+](C)(C)C.[Br-] [N,N,N-trimethyl-1-hexadecanaminium bromide] + O
surface tension liquid-gas [mN/m], [2]
Conditions | 293 K | 303 K | 313 K
c1 = 1e-08 | 72.79 | 71.2 | 69.6
c1 = 1e-07 | 72.78 | 71.19 | 69.59
c1 = 5.01e-07 | 72.73 | 71.16 | 69.56
c1 = 1e-06 | 72.66 | 71.11 | 69.52
c1 = 2e-06 | 72.54 | 71.03 | 69.45
c1 = 3.98e-06 | 72.31 | 70.86 | 69.3
c1 = 6.31e-06 | 72.1 | 70.69 | 69.16
c1 = 7.94e-06 | 71.91 | 70.53 | 69.02
c1 = 1e-05 | 71.73 | 70.37 | 68.88
c1 = 2e-05 | 70.97 | 69.62 | 68.22
c1 = 3.02e-05 | 70.31 | 68.93 | 67.61
c1 = 3.98e-05 | 69.72 | 68.3 | 67.04
c1 = 5.01e-05 | 69.2 | 67.72 | 66.51
c1 = 6.03e-05 | 68.81 | 67.18 | 66.01
c1 = 7.08e-05 | 68.48 | 66.67 | 65.54
c1 = 7.94e-05 | 68.06 | 66.2 | 65.1
c1 = 9.12e-05 | 67.15 | 65.75 | 64.68
c1 = 0.0001 | 66.41 | 65.32 | 64.28
c1 = 0.0002 | 60.86 | 60.52 | 59.45
c1 = 0.000302 | 54.74 | 54.35 | 53.95
c1 = 0.000398 | 50.39 | 50.02 | 49.72
c1 = 0.000501 | 47.02 | 46.83 | 46.15
c1 = 0.000603 | 44.27 | 44.12 | 43.53
c1 = 0.000708 | 41.94 | 41.82 | 41.22
c1 = 0.000794 | 39.92 | 39.75 | 39
c1 = 0.000891 | 38.15 | 38.01 | 37.25
c1 = 0.000912 | 37.9 | 37.8 | 37
c1 = 0.001 | 37.9 | 37.2 | 36.4
c1 = 0.002 | 37.8 | 37.14 | 36.4

O [water] + CCCCCCCCCCCCOS(=O)(=O)[O-].[Na+]
[2], c2 = 0
Conditions | surface tension liquid-gas [mN/m]
293 K | 72.8
303 K | 71.2
313 K | 69.6

O [water] + CCCCCCCCCCCCCCCC[N+](C)(C)C.[Br-]
[2], c2 = 0
Conditions | surface tension liquid-gas [mN/m]
293 K | 72.8
303 K | 71.2
313 K | 69.6

CCCCCCCCCCCC[N+](C)(C)CC.[Br-] [dodecyl ethyl dimethylammonium bromide] + O
surface tension liquid-gas [mN/m], [2]
Conditions | 293 K | 303 K | 313 K
c1 = 1e-07 | 72.6 | 71.2 | 69.6
c1 = 5.01e-07 | 72.4 | 71.19 | 69.6
c1 = 1e-06 | 72.3 | 71.19 | 69.59
c1 = 5.01e-06 | 72.2 | 71.13 | 69.56
c1 = 1e-05 | 71.7 | 71.06 | 69.53
c1 = 5.01e-05 | 70.7 | 70.54 | 69.24
c1 = 0.0001 | 70 | 69.94 | 68.89
c1 = 0.000501 | 67.8 | 66.59 | 65.63
c1 = 0.001 | 65.1 | 63.91 | 62.94
c1 = 0.002 | 60.3 | 60.54 | 59.58
c1 = 0.00316 | 56.4 | 56.13 | 55.17
c1 = 0.00398 | 52.4 | 52.36 | 51.87
c1 = 0.00501 | 50 | 49.44 | 48.85
c1 = 0.00631 | 47.3 | 46.78 | 46.39
c1 = 0.00794 | 44.3 | 43.72 | 43.12
c1 = 0.00891 | 42.8 | 42.12 | 41.71
c1 = 0.01 | 41.5 | 40.73 | 39.82
c1 = 0.0251 | 40.9 | 40.01 | 39.43
c1 = 0.0501 | 40.6 | 39.82 | 38.75
c1 = 0.1 | 39.4 | 39 | 38.24

O [water] + CCCCCCCCCCCCCC[N+](C)(C)C.[Br-]
[2], c2 = 0
Conditions | surface tension liquid-gas [mN/m]
293 K | 72.8
313 K | 69.6

CCCCCCCCCCCCCC[N+](C)(C)C.[Br-] [tetradecyltrimethylammonium bromide] + O
surface tension liquid-gas [mN/m], [2]
Conditions | 293 K | 313 K
c1 = 1e-07 | 72.4 | 69.59
c1 = 5.01e-07 | 72.3 | 69.54
c1 = 1e-06 | 72.2 | 69.48
c1 = 5.01e-06 | 71.7 | 69.03
c1 = 1e-05 | 71.6 | 68.49
c1 = 5.01e-05 | 70.8 | 67.49
c1 = 0.0001 | 69.9 | 66.58
c1 = 0.0002 | 66.7 | 63.61
c1 = 0.000501 | 59.1 | 58.43
c1 = 0.000631 | 56.1 | 55.41
c1 = 0.000708 | 54.6 | 53.85
c1 = 0.000794 | 53.7 | 52.61
c1 = 0.000891 | 52.7 | 51.54
c1 = 0.001 | 51.9 | 50.21
c1 = 0.002 | 43.7 | 42.65
c1 = 0.00316 | 36.7 | 36.05
c1 = 0.00398 | 36.3 | 35.38
c1 = 0.00501 | 36.3 | 35.38
c1 = 0.00708 | 36.3 | 35.38
c1 = 0.01 | 36.3 | 35.38

CCCCCCCCCCCCCCCC[n+]1ccccc1.[Br-] [1-hexadecylpyridinium bromide] + O
surface tension liquid-gas [mN/m], [2]
Conditions | 293 K | 303 K | 313 K
c1 = 1e-08 | 72.8 | 71.2 | 69.6
c1 = 5.01e-08 | 72.8 | 71.19 | 69.59
c1 = 1e-07 | 72.75 | 71.18 | 69.57
c1 = 5.01e-07 | 72.7 | 71.13 | 69.54
c1 = 1e-06 | 72.6 | 71.07 | 69.49
c1 = 5.01e-06 | 71.7 | 70.56 | 69.04
c1 = 1e-05 | 71.1 | 69.97 | 68.52
c1 = 2e-05 | 69.8 | 68.91 | 67.58
c1 = 5.01e-05 | 67.4 | 66.38 | 65.26
c1 = 0.0001 | 63 | 61.8 | 60.65
c1 = 0.0002 | 54.6 | 53.41 | 53.01
c1 = 0.000398 | 45.5 | 44.73 | 44.56
c1 = 0.000631 | 44.8 | 44.03 | 43.87
c1 = 0.000794 | 45.3 | 44.04 | 43.86
c1 = 0.001 | 44.4 | 43.92 | 43.75
c1 = 0.002 | 44 | 43.81 | 43.68
c1 = 0.00398 | 44.5 | 43.79 | 43.64
c1 = 0.00603 | 44.1 | 43.62 | 43.53
c1 = 0.00794 | 43.2 | 42.83 | 42.74
c1 = 0.01 | 43.2 | 42.75 | 42.65
c1 = 0.0302 | 39.4 | 38.89 | 38.9
c1 = 0.0603 | 38.8 | 38.02 | 37.95

O [water] + CCCCCCCCCCCCCCCC[n+]1ccccc1.[Br-]
[2], c2 = 0
Conditions | surface tension liquid-gas [mN/m]
293 K | 72.8
303 K | 71.2
313 K | 69.6
